Measured values published in US7300932B2, “Pyrrolo[1,2-b]pyridazine derivatives” (Japan Tobacco Inc., priority 2003, dated 2007).

biological target: T1, human DGAT1 (Homo sapiens, UniProt O75907); test: DGAT Scintillation Proximity Assay (SPA) with membranes of insect cells expressing human flagtag DGAT1; format: biochemical; conditions: DGAT inhibition
T1 construct: made in house; host or cells: insect cells (e.g., sf9, sf21, or High Five), Bac-to-Bac baculovirus; total cell membranes
T1 sequence (O75907 1-488): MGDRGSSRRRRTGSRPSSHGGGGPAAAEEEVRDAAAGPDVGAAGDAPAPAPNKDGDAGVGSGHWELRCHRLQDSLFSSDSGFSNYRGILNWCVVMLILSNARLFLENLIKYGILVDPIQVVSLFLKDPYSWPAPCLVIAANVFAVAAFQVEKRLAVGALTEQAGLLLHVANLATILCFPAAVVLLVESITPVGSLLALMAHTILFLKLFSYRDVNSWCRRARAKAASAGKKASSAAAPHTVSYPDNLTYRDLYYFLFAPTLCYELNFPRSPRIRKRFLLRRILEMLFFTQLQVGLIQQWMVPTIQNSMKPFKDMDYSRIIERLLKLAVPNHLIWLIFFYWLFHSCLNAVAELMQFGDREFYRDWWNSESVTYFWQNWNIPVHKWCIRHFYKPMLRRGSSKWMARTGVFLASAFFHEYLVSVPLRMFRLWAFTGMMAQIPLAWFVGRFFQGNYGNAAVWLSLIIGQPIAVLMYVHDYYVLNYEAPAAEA
Procedure: In such an assay human DGAT1 is cloned from a human liver cDNA library. PCR is used to add a restriction site and flag epitope at the most 5′ end and a restriction site at the 3′ end of the sequence. Thereafter, human flagtag (FT) DGAT1 baculovirus may be generated using a Bac-to-Bac Baculovirus Expression System® (Invitrogen). Insect cells (e.g., sf9, sf21, or High Five) are infected for 24 to 72 h and collected by centrifugation. Cell pellets are resuspended in homogenization buffer and lysed using a homogenization device, such as a Microfluidizer. Total cell membranes are collected by ultracentrifugation at 45,000 rpm for 1 h.
A small aliquot (0.2 μg/well) of membrane is incubated with 10 μM compound or mercuric chloride (as positive control for inhibition) in the presence of enzyme substrate, dioleoyl glycerol (200 μM) in 384 well plates, final volume 50 μL per well. […] The reaction is stopped by adding Wheat Germ Agglutinin (WGA) SPA beads (0.2 mg) in mercuric chloride. Cell membranes are allowed to couple to the beads overnight. The signal can be measured using, for example, a Chemiluminescence Image Plate Reader (CLIPR) or TopCount device.

Row | IC50 [nM] | Compound
1 | > 500 | CCOC(=O)c1c(C(=O)OCC)c2c(-c3ccccc3)cc(N3CCOCC3)nn2c1C1CC1 [Example 8, 7-Cyclopropyl-2-morpholin-4-yl-4-phenyl-pyrrolo[1,2-b]pyridazine-5,6-dicarboxylic acid diethyl ester]
2 | > 500 | CCOC(=O)c1c(C(=O)OCC)c2c(-c3ccccc3)cc(N3CCOCC3)nn2c1C [Example 24, 7-Methyl-2-morpholin-4-yl-4-phenyl-pyrrolo[1,2-b]pyridazine-5,6-dicarboxylic acid diethyl ester]
3 | > 500 | CCCc1c(-c2nnc(C)o2)c(C(=O)OCC)c2c(-c3ccccc3)cc(N3CCOCC3)nn12 [Example 78, 6-(5-Methyl-[1,3,4]oxadiazol-2-yl)-2-morpholin-4-yl-4-phenyl-7-propyl-pyrrolo[1,2-b]pyridazine-5-carboxylic acid ethyl ester]
4 | > 500 | CCCc1c(-c2ncc(-c3ccccc3)o2)c(C(=O)OCC)c2c(-c3ccccc3)cc(N3CCOCC3)nn12 [Example 80, 2-Morpholin-4-yl-4-phenyl-6-(5-phenyl-oxazol-2-yl)-7-propyl-pyrrolo[1,2-b]pyridazine-5-carboxylic acid ethyl ester]
5 | < 500 | CCCc1c(C(=O)OCC)c(C(=O)OCC)c2c(C3CCCCC3)cc(N3CCOCC3)nn12 [Example 90, 4-Cyclohexyl-2-morpholin-4-yl-7-propyl-pyrrolo[1,2-b]pyridazine-5,6-dicarboxylic acid diethyl ester]
6 | > 500 | CCCc1c(C(=O)OCC)c(C(=O)OCC)c2c(-c3ccccc3)cc(N3CCC3)nn12 [Example 95, 2-Azetidin-1-yl-4-phenyl-7-propyl-pyrrolo[1,2-b]pyridazine-5,6-dicarboxylic acid diethyl ester]
7 | < 500 | CCCc1c(C(=O)OCC)c(C(=O)OCC)c2c(-c3ccccc3)cc(N3CCCC3)nn12 [Example 96, 4-Phenyl-7-propyl-2-pyrrolidin-1-yl-pyrrolo[1,2-b]pyridazine-5,6-dicarboxylic acid diethyl ester]
